Consider 10 molecules from PubChem BioAssay (NCI).

Each structure is given as a SMILES string.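 Briefly, cells in 96-well plates were exposed to five compound concentrations for 48 h, and endpoints were estimated by linear interpolation. The concentration for full growth arrest is given as TGI.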 Where a SMILES comes first, the peptide text is derived from it. [ ]: non-standard residue; d: D form. The star is where a group is joined. NMeAc5c = CNC1(C(=O)O)CCCC1; Boc = CC(C)(C)OC(=O)*; OBn = c1ccc(CO*)cc1

The subject of one experiment is SR leukemia. The experiment is described as follows: growth of human tumour cells (NCI), 48 h.
On to `Cc1ccc(-c2n[nH]c(=O)n2N2C(=O)c3ccccc3C2=O)cc1`, for which the TGI was greater than 100 µM.
Still for that read-out and setting: under `CN(C(=O)C(Cc1ccccc1)NC(=O)OC(C)(C)C)C1(C(=O)NC(Cc2ccccc2)C(=O)OCc2ccccc2)CCCC1` (stereo not drawn) (Boc-Phe-[NMeAc5c]-Phe-OBn; configuration not given here) stands 69.1 µM; under `COc1cc2c(c(OC)c1OC)C(=O)[C@@H]1[C@H]2N1C(N)=O`, greater than 100 µM; under `C[C@]12CCC(O)CC1=CC[C@@H]1[C@@H]2CC[C@]2(C)C(=O)[C@H](n3ccnc3)C[C@@H]12` (stereo not given in full), greater than 100 µM.
In the case of `COC(=O)c1ccccc1CC1Cc2ccc3c(c2C1=O)CCCC3` (stereo not given), the TGI stood at 24.5 µM.
The same measure, in the same setting: next, `O=C1/C(=C\c2ccccc2)C(NC2CCCCC2)c2ccccc21` (stereo not given): 0.473 µM; `N#Cc1c(N2CCCC2)ncn(-c2ccccc2)c1=O`: greater than 100 µM; `Clc1ccccc1C(SCc1ccccc1)SCc1ccccc1`: greater than 100 µM.
In turn, `CC1(C)OC(=O)N(c2ccccc2)C12C=Cc1cc([N+](=O)[O-])cc([N+](=O)[O-])c1O2` (stereo not given) registered a TGI greater than 100 µM.
In turn, `O=C1CCCSC(=O)N1Cc1ccccc1` had a TGI greater than 100 µM.

In another experiment the test system is SN12C renal. Nature of the experiment: growth of human tumour cells (NCI), 48 h.
`Cc1ccc(-c2n[nH]c(=O)n2N2C(=O)c3ccccc3C2=O)cc1` came in with a TGI greater than 100 µM.
For the molecule `CN(C(=O)C(Cc1ccccc1)NC(=O)OC(C)(C)C)C1(C(=O)NC(Cc2ccccc2)C(=O)OCc2ccccc2)CCCC1` (stereo not drawn) (Boc-Phe-[NMeAc5c]-Phe-OBn; configuration not given here), the TGI is greater than 100 µM.
`COc1cc2c(c(OC)c1OC)C(=O)[C@@H]1[C@H]2N1C(N)=O` registered a TGI greater than 100 µM.
Turning to `C[C@]12CCC(O)CC1=CC[C@@H]1[C@@H]2CC[C@]2(C)C(=O)[C@H](n3ccnc3)C[C@@H]12` (stereo not given in full), the TGI was greater than 100 µM.
Same read-out and setting: under `COC(=O)c1ccccc1CC1Cc2ccc3c(c2C1=O)CCCC3` (stereo not given) stands greater than 100 µM.
On to `O=C1/C(=C\c2ccccc2)C(NC2CCCCC2)c2ccccc21` (stereo not given), for which the TGI stood at 4.37 µM.
Regarding `N#Cc1c(N2CCCC2)ncn(-c2ccccc2)c1=O`, the TGI is greater than 100 µM.
For `Clc1ccccc1C(SCc1ccccc1)SCc1ccccc1`, the TGI was greater than 100 µM.
On the same count and under the same terms, next, `CC1(C)OC(=O)N(c2ccccc2)C12C=Cc1cc([N+](=O)[O-])cc([N+](=O)[O-])c1O2` (stereo not given): greater than 100 µM; `O=C1CCCSC(=O)N1Cc1ccccc1`: greater than 100 µM.

The test system of the next experiment is IGROV1 ovarian. The experiment is described as follows: growth of human tumour cells (NCI), 48 h.
`Cc1ccc(-c2n[nH]c(=O)n2N2C(=O)c3ccccc3C2=O)cc1` displayed a TGI greater than 100 µM.
On the same count and under the same terms, under `CN(C(=O)C(Cc1ccccc1)NC(=O)OC(C)(C)C)C1(C(=O)NC(Cc2ccccc2)C(=O)OCc2ccccc2)CCCC1` (stereo not drawn) (Boc-Phe-[NMeAc5c]-Phe-OBn; configuration not given here) stands greater than 100 µM; under `COc1cc2c(c(OC)c1OC)C(=O)[C@@H]1[C@H]2N1C(N)=O`, greater than 100 µM.
`C[C@]12CCC(O)CC1=CC[C@@H]1[C@@H]2CC[C@]2(C)C(=O)[C@H](n3ccnc3)C[C@@H]12` (stereo not given in full) yielded a TGI greater than 100 µM.
The same measure, in the same setting: under `COC(=O)c1ccccc1CC1Cc2ccc3c(c2C1=O)CCCC3` (stereo not given) stands greater than 100 µM.
For the molecule `O=C1/C(=C\c2ccccc2)C(NC2CCCCC2)c2ccccc21` (stereo not given), the TGI amounted to 10.4 µM.
Take `N#Cc1c(N2CCCC2)ncn(-c2ccccc2)c1=O`: the TGI was greater than 100 µM.
For the molecule `Clc1ccccc1C(SCc1ccccc1)SCc1ccccc1`, the TGI is greater than 100 µM.
As for `CC1(C)OC(=O)N(c2ccccc2)C12C=Cc1cc([N+](=O)[O-])cc([N+](=O)[O-])c1O2` (stereo not given), the TGI was greater than 100 µM.
As for `O=C1CCCSC(=O)N1Cc1ccccc1`, the TGI is greater than 100 µM.

For the next experiment, the system named is MDA-N. The experiment is described as follows: growth of human tumour cells (NCI), 48 h.
Take `Cc1ccc(-c2n[nH]c(=O)n2N2C(=O)c3ccccc3C2=O)cc1`: the TGI was greater than 100 µM.
The molecule `CN(C(=O)C(Cc1ccccc1)NC(=O)OC(C)(C)C)C1(C(=O)NC(Cc2ccccc2)C(=O)OCc2ccccc2)CCCC1` (stereo not drawn) (Boc-Phe-[NMeAc5c]-Phe-OBn; configuration not given here) gave a TGI of 65.4 µM.
Consider `COc1cc2c(c(OC)c1OC)C(=O)[C@@H]1[C@H]2N1C(N)=O`, for which the TGI was greater than 100 µM.
The same measure, in the same setting: next, `C[C@]12CCC(O)CC1=CC[C@@H]1[C@@H]2CC[C@]2(C)C(=O)[C@H](n3ccnc3)C[C@@H]12` (stereo not given in full): greater than 100 µM; `COC(=O)c1ccccc1CC1Cc2ccc3c(c2C1=O)CCCC3` (stereo not given): greater than 100 µM.
`O=C1/C(=C\c2ccccc2)C(NC2CCCCC2)c2ccccc21` (stereo not given): the TGI amounted to 3.8 µM.
`N#Cc1c(N2CCCC2)ncn(-c2ccccc2)c1=O`: the TGI was greater than 100 µM.
Take `Clc1ccccc1C(SCc1ccccc1)SCc1ccccc1`: the TGI was greater than 100 µM.
With `CC1(C)OC(=O)N(c2ccccc2)C12C=Cc1cc([N+](=O)[O-])cc([N+](=O)[O-])c1O2` (stereo not given), the TGI is greater than 100 µM.
Still for that read-out and setting: next, `O=C1CCCSC(=O)N1Cc1ccccc1`: greater than 100 µM.

Another experiment has as its system SNB-75 CNS. The experiment is described as follows: growth of human tumour cells (NCI), 48 h.
As for `Cc1ccc(-c2n[nH]c(=O)n2N2C(=O)c3ccccc3C2=O)cc1`, the TGI is greater than 100 µM.
In turn, `CN(C(=O)C(Cc1ccccc1)NC(=O)OC(C)(C)C)C1(C(=O)NC(Cc2ccccc2)C(=O)OCc2ccccc2)CCCC1` (stereo not drawn) (Boc-Phe-[NMeAc5c]-Phe-OBn; configuration not given here) returned a TGI greater than 100 µM.
For the molecule `COc1cc2c(c(OC)c1OC)C(=O)[C@@H]1[C@H]2N1C(N)=O`, the TGI is greater than 100 µM.
`C[C@]12CCC(O)CC1=CC[C@@H]1[C@@H]2CC[C@]2(C)C(=O)[C@H](n3ccnc3)C[C@@H]12` (stereo not given in full) came in with a TGI greater than 100 µM.
The molecule `COC(=O)c1ccccc1CC1Cc2ccc3c(c2C1=O)CCCC3` (stereo not given) showed a TGI greater than 100 µM.
The molecule `O=C1/C(=C\c2ccccc2)C(NC2CCCCC2)c2ccccc21` (stereo not given) returned a TGI of 4.45 µM.
In turn, `N#Cc1c(N2CCCC2)ncn(-c2ccccc2)c1=O` gave a TGI greater than 100 µM.
The same measure, in the same setting: under `Clc1ccccc1C(SCc1ccccc1)SCc1ccccc1` stands greater than 100 µM; under `CC1(C)OC(=O)N(c2ccccc2)C12C=Cc1cc([N+](=O)[O-])cc([N+](=O)[O-])c1O2` (stereo not given), greater than 100 µM; under `O=C1CCCSC(=O)N1Cc1ccccc1`, greater than 100 µM.

The test system of the next experiment is ACHN renal. The experiment is described as follows: growth of human tumour cells (NCI), 48 h.
As to `Cc1ccc(-c2n[nH]c(=O)n2N2C(=O)c3ccccc3C2=O)cc1`, the TGI was greater than 100 µM.
Consider `CN(C(=O)C(Cc1ccccc1)NC(=O)OC(C)(C)C)C1(C(=O)NC(Cc2ccccc2)C(=O)OCc2ccccc2)CCCC1` (stereo not drawn) (Boc-Phe-[NMeAc5c]-Phe-OBn; configuration not given here), for which the TGI is greater than 100 µM.
`COc1cc2c(c(OC)c1OC)C(=O)[C@@H]1[C@H]2N1C(N)=O` had a TGI greater than 100 µM.
On to `C[C@]12CCC(O)CC1=CC[C@@H]1[C@@H]2CC[C@]2(C)C(=O)[C@H](n3ccnc3)C[C@@H]12` (stereo not given in full), for which the TGI was greater than 100 µM.
Take `COC(=O)c1ccccc1CC1Cc2ccc3c(c2C1=O)CCCC3` (stereo not given): the TGI was greater than 100 µM.
`O=C1/C(=C\c2ccccc2)C(NC2CCCCC2)c2ccccc21` (stereo not given): the TGI was found to be 2.34 µM.
On to `N#Cc1c(N2CCCC2)ncn(-c2ccccc2)c1=O`, for which the TGI is greater than 100 µM.
In turn, `Clc1ccccc1C(SCc1ccccc1)SCc1ccccc1` had a TGI greater than 100 µM.
As for `CC1(C)OC(=O)N(c2ccccc2)C12C=Cc1cc([N+](=O)[O-])cc([N+](=O)[O-])c1O2` (stereo not given), the TGI was greater than 100 µM.
`O=C1CCCSC(=O)N1Cc1ccccc1` yielded a TGI greater than 100 µM.

For the next experiment, the system named is HL-60(TB) leukemia. The experiment is described as follows: growth of human tumour cells (NCI), 48 h.
Regarding `Cc1ccc(-c2n[nH]c(=O)n2N2C(=O)c3ccccc3C2=O)cc1`, the TGI was greater than 100 µM.
Still for that read-out and setting: under `CN(C(=O)C(Cc1ccccc1)NC(=O)OC(C)(C)C)C1(C(=O)NC(Cc2ccccc2)C(=O)OCc2ccccc2)CCCC1` (stereo not drawn) (Boc-Phe-[NMeAc5c]-Phe-OBn; configuration not given here) stands 47.5 µM.
In turn, `COc1cc2c(c(OC)c1OC)C(=O)[C@@H]1[C@H]2N1C(N)=O` yielded a TGI greater than 100 µM.
Consider `C[C@]12CCC(O)CC1=CC[C@@H]1[C@@H]2CC[C@]2(C)C(=O)[C@H](n3ccnc3)C[C@@H]12` (stereo not given in full), for which the TGI turned out to be 40.7 µM.
Turning to `COC(=O)c1ccccc1CC1Cc2ccc3c(c2C1=O)CCCC3` (stereo not given), the TGI was greater than 100 µM.
